Key:
[1] = Representative effective dose for mouse studies (Table 15); format: in vivo; conditions: oral
Protocol: The PANDA Agent comprising a three and/or five valence arsenic is generally effective in treating cancer in a subject, including an animal, at a dose at a wide range of dosages by intravenous injection and oral administration. In certain embodiments, the daily dosage is from about 0.5 mg/kg to about 50 mg/kg, preferably from about 0.5 mg/kg to about 25 mg/kg, more preferably from about 1 mg/kg to about 25 mg/kg, more preferably from about 1 mg/kg to about 15 mg/kg, more preferably from about 1.7 mg/kg to about 15 mg/kg, and more preferably from about 1.7 mg/kg to about 5 mg/kg. In certain embodiments, the dose is about 5 mg/kg. In certain embodiments, the PANDA Agent ATO is administered by intravenous injection or by oral administration at 1 mg/ml concentration, at a dose of 5 mg/kg per day.
In other embodiments, the daily dosage is from about 10 mg/kg to about 1000 mg/kg, preferably from about 10 mg/kg to about 500 mg/kg, more preferably from about 20 mg/kg to about 500 mg/kg, more preferably from about 20 mg/kg to about 300 mg/kg, more preferably from about 33 mg/kg to about 300 mg/kg, and more preferably from about 33 mg/kg to about 100 mg/kg. In certain embodiments, the dose is about 100 mg/kg. In certain embodiments, the PANDA Agent As2S2, As2S3, As2S5, and As4S4 is administered by oral administration at 15 mg/L concentration, at a dose of 100 mg/kg
(§1) The PANDA Agent comprising a three valence and/or five valence antimony is generally effective in treating cancer in a subject, including an animal, at a dose at a wide range of dosages by intravenous injection and oral administration. In certain embodiments, dosage is from about 60 mg/kg to about 6000 mg/kg, preferably from about 60 mg/kg to about 3000 mg/kg, more preferably from about 120 mg/kg to about 3000 mg/kg, more preferably from about 120 mg/kg to about 1500 mg/kg, more preferably from about 150 mg/kg to about 1200 mg/kg, and more preferably from about 300 mg/kg to about 1200 mg/kg. In certain embodiments, the dose is about 600 mg/kg. In certain embodiments, the PANDA Agent is administered by intravenous or oral administration at 100 mg/ml concentration, at a dose of 600 mg/kg per day.
as §1, with “bismuth” for “antimony”, “embodiments, the daily” for “embodiments,”, “In certain embodiments, the dose is about 600 mg/kg. In certain embodiments, the PANDA Agent is administered by intravenous or oral administration at 100 mg/ml concentration, at a dose of 600 mg/kg per day.” left out

[2] = Representative effective dose in humans (Table 16); format: in vivo, human; conditions: oral
Excerpt: The PANDA Agent comprising a three and/or five valence arsenic is generally effective in treating cancer in a human at a wide range of dosages by intravenous injection and oral administration.
The PANDA Agent comprising a three and/or five valence antimony is generally effective in treating cancer in a human at a wide range of dosages by intravenous injection and oral administration. In certain embodiments, the effective dose results in a maximum Sb concentration in the patient's blood (plasma) from about 3.58 mg/L to about 357.5 mg/L, preferably from about 3.58 mg/L to about 179 mg/L, more preferably from about 7.15 mg/L to about 179 mg/L, more preferably from about 7.15 mg/L to about 107 mg/L, more preferably from about 12 mg/L to about 107 mg/L, more preferably from about 32.7 to about 38.8 mg/L. In certain embodiments, the daily dose is from about 20 mg/kg, wherein the maximum Sb concentration is from about 32.7 mg/L to about 38.8 mg/L, and wherein the platform Sb concentration in blood (plasma) is about 3.5 mg/L.
The PANDA Agent comprising a three and/or five valence bismuth is generally effective in treating cancer in a human at a wide range of dosages by intravenous injection and oral administration. In certain embodiments, the effective dose results in a maximum Bi concentration in the patient's blood (plasma) from about 3 mg/L to about 300 mg/L, preferably from about 3 mg/L to about 150 mg/L, more preferably from about 6 mg/L to about 150 mg/L, more preferably from about 6 mg/L to about 90 mg/L, more preferably from about 10 mg/L to about 90 mg/L, more preferably from about […]. In certain embodiments, the daily dose is from about 20 mg/kg, wherein the maximum Bi concentration is from about 32.7 mg/L to about 38.8 mg/L, and wherein the platform Bi concentration in blood (plasma) is about 3.5 mg/L.

APL patients = conditions: orally administrated; cited from earlier work
p53 = test: Inductively coupled plasma mass spectroscopy (ICP-MS), arsenic per p53; format: binding
Excerpt: We further discovered that elemental arsenic, elemental bismuth, elemental antimony, and compounds containing elemental arsenic, bismuth, and/or antimony are good rescue compounds for mp53. […] The arsenic-, bismuth-, and antimony-mediated mp53 rescue is achieved by binding of the released arsenic, bismuth, and antimony to mp53. […] The arsenic-, bismuth-, and antimony-mediated mp53 rescue also elevates mp53 Tm. […] Moreover, these rescue compounds can also rescue one or more mp53s.

mp53 [3] = test: PAb1620 immunoprecipitation, structural rescuability of indicated mp53s (with/without ATO); format: cell-based, human; conditions: for Str. Res: Table 9, structurally rescuable by PANDA Agent ATO, label = mp53; for 1620 TP (PAb1620 immunoprecipitation efficiency): presence vs absence of ATO, cell line not indicated in this part of Table 9; for Str. Res. (whether the mp53 is structurally rescuable): Table 8, label = mp53 mutation, rescue agent ATO
Protocol: (§2) For p53 folding assay, H1299 cells transfected with indicated TP53 were treated with 1 μg/ml ATO for 2 hr, and cells were lysed followed by immunoprecipitation using PAb1620. Immunoprecipitated p53 was immunoblotted. Experiments are repeated twice. For p53 transcriptional activity assay, H1299 cells were co-transfected with indicated TP53 and PUMA reporter for 24 hr, followed by treatment of 1 μg/ml ATO for 24 hr. […] X-axis: PAb1620 IP efficiency; Y-axis: PUMA luciferase report signal. Hollow cycles: without ATO treatment; solid cycles: with ATO treatment.
NP40 buffer at room temperature.

mp53 [4] = test: Functional rescuability of indicated mp53s (Luciferase, qPCR and/or Western blot); format: cell-based, human; conditions: for Func. Res: Table 9, functionally rescuable by PANDA Agent ATO, label = mp53; for Func. Res. (whether the mp53 is functionally rescuable): Table 8, label = mp53 mutation, rescue agent ATO
Protocol: as §2
Cells were plated at a concentration of 2×10^4 cells/well in 24-well plates, followed by transfection of luciferase reporter plasmids for 24 hr. All transfection contained 300 ng p53 expressing plasmid, 100 ng of luciferase reporter plasmid and 5 ng of renilla plasmid per well. After agent treatment, cells were lysed in luciferase reporter assay buffer and determined using a luciferase assay kit (Promega). Activities of luciferase were divided by that of renilla to normalize the transfection efficiency.
Total RNA was isolated from cells using Total RNA Purification Kit (B518651, Sangon Biotech). 1 μg total RNA was reverse-transcribed using the GoScript®™ Reverse Transcriptase System (A5001, Promega) following manufacturer's protocol. PCR was performed in triplicate using SYBR green mix (Applied Biosystems), and a ViiA™ 7 Real-Time PCR System (Applied Biosystems) under the following conditions: 10 min at 95° C. followed by 40 cycles of 95° C. for 15 s and 60° C. for 1 min. Specificity of the PCR product was checked for each primer set and samples from the melting curve analysis. Expression levels of targeted genes were normalized relative to levels of β-actin adopting comparative Ct method. The primer sequences are as follows: MDM2 forward 5′-[…]-3′, reverse 5′-[…]-3′; PIG3 forward 5′-[…]-3′, reverse 5′-[…]-3′; PUMA forward 5′-[…]-3′, reverse 5′-[…]-3′; p21 forward 5′-[…]-3′, reverse 5′-[…]-3′; Bax forward 5′-[…]-3′, reverse 5′-[…]-3′; #-actin forward 5′-[…]-3′, reverse 5′-[…]-3′.

mp53 [5] = test: mp53 rescue profile (either structurally or functionally rescuable); format: cell-based, human; conditions: Table 8; label = mp53 mutation; rescue agent ATO
[6] = presence vs absence of ATO, cell line not indicated

| Compound | Representative effective dose: Dose per day [1] [mg/kg] | Maximun Metal concentration in blood (plasma) [2] [mg/L] | Platform Metal concentration in blood (plasma) [2] | Representative effective dose: Dose per day [2] [mg/kg] | Str. Res (mp53 [3]) | 1620 TP (PAb1620 immunoprecipitation efficiency) (mp53 [3]) [fold] | Func. Res (mp53 [4]) | Luciferase Assay PUMA (mp53 [4]; [6]) [fold] | also measured |
| --- | --- | --- | --- | --- | --- | --- | --- | --- | --- |
| S=[As][As]=S (centres unmarked) [As2S2] | 100 | 0.57 to 1.31 | 0.03 to 0.07 mg/L | 2.80 | – | – | – | – | – |
| S=[As]S[As]=S (centres unmarked) [As2S3] | 100 | 0.57 to 1.31 | 0.03-0.07 L mg/L | 3.20 | – | – | – | – | – |
| S=[As](=S)S[As](=S)=S [As2S5] | 100 | – | – | 4.05 | – | – | – | – | – |
| S1[As]2S[As]3S[As]2S[As]13 [As4S4, reference compound] | 100 | 0.57 to 1.31 | 0.03 to 0.07 mg/L | 2.80 | – | – | – | – | efficacy in treating APL patients (in words) (APL patients): as effective as conventional intravenous ATO |
| [AsH3] [arsenic] | – | – | – | – | – | – | – | – | arsenic bound per p53 (ICP-MS) (p53): 0.93±0.19 arsenic per p53 |
| D281H | – | – | – | – | Yes (can be rescured by the PANDA Agent ATO, as measured to a 1.5 fold or more increase in PAb1620 immunoprecipitation signal) | 2.1 | Yes (the PANDA Agent can rescue one or more of the mp53's wild type function to a 1.5 fold or more, as measured by luciferase assay, qPCR, or Western blot) | 2.2 | – |
| H179P | – | – | – | – | – | – | – | – | Str. Res. (whether the mp53 is structurally rescuable) (mp53 [3]): Yes; Func. Res. (whether the mp53 is functionally rescuable) (mp53 [4]): Yes; Res. (either structurally or functionally rescuable) (mp53 [5]): Yes |
| H179R | – | – | – | – | Yes (can be rescured by the PANDA Agent ATO, as measured to a 1.5 fold or more increase in PAb1620 immunoprecipitation signal) | 4.6 | Yes (the PANDA Agent can rescue one or more of the mp53's wild type function to a 1.5 fold or more, as measured by luciferase assay, qPCR, or Western blot) | 1.8 | Luciferase Assay CDKNIA (mp53 [4]; [6]): 1.0 fold |
| R283H | – | – | – | – | Yes (can be rescured by the PANDA Agent ATO, as measured to a 1.5 fold or more increase in PAb1620 immunoprecipitation signal) | 1.6 | Yes (the PANDA Agent can rescue one or more of the mp53's wild type function to a 1.5 fold or more, as measured by luciferase assay, qPCR, or Western blot) | 1.6 | Str. Res. (whether the mp53 is structurally rescuable) (mp53 [3]): Yes; Func. Res. (whether the mp53 is functionally rescuable) (mp53 [4]): Yes; Res. (either structurally or functionally rescuable) (mp53 [5]): Yes |
